Source: US20070212403A1, “Method for Selecting Cationic or Anionic Liposomes for Treatment of a Mucosa Membrane, and Kit Comprising the Same” (Yissum Research Development Company of the Hebrew …, priority 2003, published 2007)

Assays:
tumor recurrence = conditions: animal model, peritoneal wound site; cited from earlier work
[1] = system: epithelium of the rat intestine; assay: Tissue uptake of free and liposomal SOD and TMN in intestinal sacs; conditions: for tissue uptake: 60 min incubation, mean±SEM
Description: The abdomens of anesthetized healthy Sabra rats were cut open and 10 cm long segments of the distal colon were excised, separated and rinsed with PBS. Colon sacs (5 cm each) were prepared by tying one end with 3/0 silk suture, filling with 0.4 ml of free or liposomal suspension of either TMN or FITC-SOD (diluted×10 in PBS), and tying at the other end.
The sacs were incubated in 15 ml of PBS, containing 10 mM glucose, at 37° C., in a glass vial in a shaking bath for 60 min. At the end of the incubation, the sacs were cut open, rinsed three times by PBS immersion and weighed. For detection of FITC-SOD attachment and uptake (subsequently referred to generally as uptake, as internalization and attachment cannot be discriminated using these methods), the colon sac preparations were homogenized (Polytron, Kinematicas, Berlin, Germany) in a solution containing isopropanol: pH 9.0 borate buffer 9:1. One milliliter of the homogenate was centrifuged at 14,000 rpm for 15 min. The level of fluorescence in the supernatant was then measured by a spectrofluorimeter (Perkin-Elmer LS-SB, Bucks, England) at λ excitation=495, λ emission=525. For the detection of TMN uptake, tissues were homogenized in water containing 1% v/v TritonX-100. One ml of the homogenate was centrifuged (5000 rpm, 15 min), and TMN concentration was measured by EPR.

jejunal mucosa = assay: Local oxidative stress (hypoxanthine/xanthine oxidase-FeSO4) in perfused rat jejunum; format: in vivo; conditions: 20 min perfusion pretreatment before hydroxyl radical induction; for tissue LDH activity: mean±SEM
Description: Hydroxyl radicals were induced in the jejunum (15 cm long segment) of each of four group of anaesthetized Sabra rats, by the perfusion of a mixture of 6 mM hypoxanthine, 3 U/ml of xanthine oxidase, 10 mM FeSO4 and 1 mM EDTA in saline over 30 min, using a closed rat jejunal loop system at a rate of 1 ml/min, as described elsewhere [Kohen R. et al. J. Biol Chem. 1992, 267:21349-21354].
In separate studies two groups of rats (4 rats in each group) were perfused with either 35 U/ml SOD or liposomal SOD over 20 min. A 10 min saline rinse was then performed, followed by the hydroxyl radicals induction as described above. Similarly, the other two groups (4 rats each) were perfused with 5 mM free TMN or liposomal TMN over 20 min. A 10 min saline rinse was then performed, followed by hydroxyl radicals induction as described above. Control studies included (a) a group of rats, perfused with normal saline over 30 minutes prior to the oxidative damage induction, (b) a group of rats, perfused with normal saline for 20 min (naive control). At the end of each study, the perfused jejunal segment was separated from the anaesthetized animal, the mucosal epithelial layer delicately scraped and homogenized in 5 ml of distilled water on ice.
Assuming that tissue insult would cause leakage of enterocyte contents, the induced damage was characterized by measuring tissue (a) activity of lactate dehydrogenase (LDH) at 340 nm with pyruvic acid as the substrate and NADH as the electron donor. For this purpose, 1 ml of the tissue homogenate was centrifuged at 5000 g for 15 min. LDH activity was measured in the supernatant; (b) potassium levels by atomic absorption. All measurements were repeated four times, and the results were normalized to tissue dry weight.

[2] = system: healthy colonic epithelium of the rat; assay: Tissue staining by charged dyes, healthy colonic sacs; conditions: 15 min incubation, mean±SEM
Description: Colonic sacs, of either healthy or inflamed rat colonic tissues, were prepared as described above and filled, in separate studies, with 0.5 ml of aqueous solutions (containing 2% v/v DMSO) of either of the cationic dye, hematoxylin (1 mg/ml), or the anionic dye, eosin B (0.5 mg/ml). The sacs were incubated in 15 ml of PBS containing glucose (10 mM), at 37° C. (glass vial) for 15 min in a shaking bath, after which the sacs were cut open, measured for their surface area (ruler) and rinsed (PBS) three times. The tissues incubated with eosin B were then homogenized in 3 ml of absolute methanol, while the tissues incubated with hematoxylin were homogenized in 3 ml of absolute ethanol. The concentration of dyes in the tissue homogenates was measured spectrophotometrically (Uvikon 933, Kontron Switzerland), at 292 nm (hematoxylin) or 523 nm (eosin B).

[3] = system: inflamed colonic epithelium of the rat; assay: Tissue staining by charged dyes, inflamed colonic sacs; conditions: 15 min incubation, mean±SEM
Description: Twenty-four hours prior to colitis induction the rats were deprived of food, but allowed free access to water. The water contained 10 mg/l of the laxatives sennoside-A and sennoside-B (X-Prep Liquid®, Rafa Pharmaceuticals, Israel) and sucrose (200 g/l). With the rats under light ether inhalation anesthesia, colitis was induced by intracolonic administration of 30 mg of dinitrobenzensulfonic acid (DNBS) dissolved in 1 ml of an ethanolic solution 25% (v/v). The solution was instilled slowly over 20 s via a flexible, perforated foley catheter, which was then immediately removed, leaving the rats in an upside down position for another 40 s. Colonic sacs, of either healthy or inflamed rat colonic tissues, were prepared as described above and filled, in separate studies, with 0.5 ml of aqueous solutions (containing 2% v/v DMSO) of either of the cationic dye, hematoxylin (1 mg/ml), or the anionic dye, eosin B (0.5 mg/ml). The sacs were incubated in 15 ml of PBS containing glucose (10 mM), at 37° C. (glass vial) for 15 min in a shaking bath, after which the sacs were cut open, measured for their surface area (ruler) and rinsed (PBS) three times. […] The concentration of dyes in the tissue homogenates was measured spectrophotometrically (Uvikon 933, Kontron Switzerland), at 292 nm (hematoxylin) or 523 nm (eosin B).

| Compound | reduction of tumor recurrence (tumor recurrence) | tissue uptake [1] | tissue potassium levels (jejunal mucosa) | tissue LDH activity (jejunal mucosa) | dye attachment to healthy colonic epithelium [2] | dye attachment to inflamed colonic epithelium [3] | tissue uptake relative to free SOD uptake [1] |
| --- | --- | --- | --- | --- | --- | --- | --- |
| catalase | 40% |  |  |  |  |  |  |
| superoxide dismutase [native SOD] | 50% | 2.5±1.6 % uptake of initial amount | 0.37±0.03 μmol/mg tissue | 11.8±0.3 U/mg tissue |  |  |  |
| Oc1cc2c(cc1O)[C@@H]1c3ccc(O)c(O)c3OC[C@]1(O)C2 [hematoxylin] |  |  |  |  | 26.2±2.8 μg/cm^2 | 19.6±1.36 μg/cm^2 |  |
| O=C(O)c1ccccc1-c1c2cc([N+](=O)[O-])c(=O)c(Br)c-2oc2c(Br)c(O)c([N+](=O)[O-])cc12 [eosin B] |  |  |  |  | 0.12±0.011 μg/cm^2 | 0.19±0.012 μg/cm^2 |  |
| CC1(C)CC(N)CC(C)(C)N1[O] [free TMN, 4-amino tempol] |  | 6.8±1.1 % uptake of initial amount | 0.33±0.08 μmol/mg tissue | 9.0±1.3 U/mg tissue |  |  | 3 fold |
